Results from patent US11549115B2, “Compositions and methods for regulated gene expression” (YALE UNIVERSITY, priority 2017, dated 2023).

Columns and labels:
sialidase BT0455 = assay: Sialidase activity in murine fecal samples (pNP-SA hydrolysis, LC-MS); type: in vivo, Bacteroides thetaiotaomicron; conditions: mice carrying Bt^RS
Protocol: Groups of 6 germ-free Swiss Webster mice were orally gavaged with 1×10^9 CFU of the desired B. thetaiotaomicron strain. Fecal samples (˜100-200 mg) were collected daily for 12 days. aTC (100 μg/mL) was administered in drinking water for 12 hours after fecal collection on day 1. Fecal samples were homogenized in 1 mL of 1× tris-buffered saline (TBS) with a single 5 mm stainless steel bead using a bead beater (BioSpec Products) at 26° C. for 1 minute on the high setting, followed by vortexing at top speed for 8 minutes. Samples were then centrifuged at 500×g for 1 minute to pellet fibrous and insoluble matter. […]
Bacterial cells (collected and stored as described above) were lysed through one round of freeze-thaw followed by nutation for 10 minutes at 26° C. […] Quantification of the enzyme reaction product, p-nitrophenol (pNP), was identical to the LC-MS analysis of aTC described above, but with reduced injection volume (5 μL) and methanol replacing acetonitrile as solvent B for the reversed phase chromatography. […] Linear fit values were normalized to amount of protein in the cellular lysates added to each reaction, which was determined by Bradford. […]

[1] = system: Bt::tetR P1TDP^GH023-NanoLuc; type: in vivo, mice
Protocol: 8-10 week old SPF Rag^−/− mice (Jackson Laboratories) (n=7) were colonized by oral gavage with 1×10^9 CFU of B. thetaiotaomicron TetR-P1TDP^GH023-NanoLuc. Fecal pellets were collected daily after gavage and processed as described above. The supernatant was used for CFU determination by plating dilutions on BHI-blood agar plates containing gentamicin and erythromycin, and 500 μL was used for luminescence measurements (described below).
(§1) The 500 μL collected from the resuspended fecal supernatant was centrifuged at 21,130×g for 3 minutes to pellet bacterial cells, which were then resuspended in 50 μL 1× BugBuster (Novagen) in 1×PBS and lysed by one round of freeze-thaw and 10 minutes of nutation at 26° C. Samples were centrifuged at 21,130×g for 10 minutes at 4° C., and 10 μL of the supernatant was mixed with an equal volume of NanoLuc Reaction Buffer to induce luminescence production. Luminescence was measured after a 5 minute incubation at 26° C. on a plate reader (BioTek Synergy H1) with an integration time of 1 second at a gain setting of 100. Luminescence values were normalized to colony forming units (CFUs) determined by dilution plating of the resuspended fecal supernatant on BHI-blood agar plates containing gentamicin and erythromycin.

[2] = system: Bt::tetR P1TDP^GH023-NanoLuc; type: in vivo, mice; remark: listed apart in the source
Protocol: Germ-free Swiss Webster mice were orally gavaged with a mixture of 1×10^8 CFU of each of 14 human gut microbes shown in FIG. 12D and Table 3. With the exception of the reporter strain, all species are sensitive to gentamicin and/or erythromycin (data not shown). Colonization was allowed to stabilize for at least 7 days prior to the start of the experiment. Fecal pellets were collected daily, and mice were given aTC (100 μg/mL) in the drinking water for 48 hours after stool collection on Day 3. Fecal samples were homogenized, and fibrous/insoluble matter removed as described above. From the supernatant, 200 μL was stored for DNA purification as previously described (Goodman, A. L. et al., 2011, Nat. Protoc., 6:1969-1980) and subsequent qPCR analysis (described below), 10 μL was used for CFU determination of the reporter strain by plating dilutions on BHI-blood agar plates containing gentamicin and erythromycin, and 500 μL was used for luminescence measurements (described below).
At each time point, abundance of each species was assessed by qPCR from fecal DNA using strain specific primers described previously (Cullen, T. W. et al., 2015, Science, 347:170-175). qPCR was performed as described (Goodman, A. L. et al., 2009, Cell Host and Microbe, 6:279-289; Martens, E. C. et al., 2008, Cell Host and Microbe, 4:447-457) using a CFX96 instrument (BioRad) and SYBR FAST universal master mix (KAPA Biosystems). Mean strain quantities were calculated using a standard curve.
as §1, with “Luminescence values were normalized to colony forming units (CFUs) determined by dilution plating of the resuspended fecal supernatant on BHI-blood agar plates containing gentamicin and erythromycin.” left out

[3] = in vivo; cited from earlier work

In the case of Cc1c2c(c(O)c3c(O)cccc13)C(=O)[C@]1(O)C(=O)C(C(N)=O)=C(O)[C@@H](N(C)C)[C@@H]1C2 [aTC, Anhydrotetracycline], the “sialidase activity again undetectable after aTC removal” value (sialidase BT0455) is reported as 4 days, the “return of fecal luminescence to baseline after aTC removal” value ([1]; SPF Rag-/- mice) is reported as 3 days and the “increase in fecal luminescence” value ([1]; SPF Rag-/- mice, aTC in drinking water for 48 hours) is reported as 4,800 fold. The “effect on stability of B. thetaiotaomicron in a complete murine microbiota” value ([1]; mouse, in vivo) was “does not affect the stability of B. thetaiotaomicron”, the “complete repression after removal of the inducer” value ([2]; 14-species community) was 7 to 9 days and the “increase of luminescence in fecal pellets” value ([2]; 14-species community, within 24 hours of 100 μg/mL aTC) was ~4,500 fold. For the same compound, the “impact on community structure” value ([2]; alpha and beta diversity, 19-day experiment) was “did not impact community structure”, the “growth of Bacteroides in aTC” value (Bacteroides) was “grow at wildtype rates” and the “concentration in drinking water that does not adversely affect mouse health” value [3] was 100 µg/mL.
